From patent US20050239873A1 (priority 1999, published 2005)
Values joined by “and” are separate entries in the source; they are usually repeats but may differ in a detail not shown here. Equal entries are not always repeated.

What was measured:
[1] = Pharmacokinetic evaluation in male CD2F1 mice; assay type: in vivo, mouse
Description: To determine the pharmacokinetics of 2-OMe antimycin A1 in male CD2F1 mice, groups of three were dosed either intravenously (tail vein) or intraperitoneally with 2-OMe antimycin A1 (20 mg/kg) in a vehicle of Cremaphor (5%) and ethanol (5%) in 0.9% saline. For both dosing routes, the volume administered was 5 ml/kg body weight. At various times, samples were collected by cardiac puncture into tubes containing NaF/EDTA (dry powders).
Pharmacokinetic values were derived with WinNonlin® software (Mountain View, Calif.).

[2] = Stability in cell culture; assay type: in vitro ADME; details: HL-60 and RPMI-8226 cultures, 500 ng/ml
Description: HL60 and RPMI-8226 cells were maintained in cell culture medium in the presence or absence of 20% fetal bovine serum. 2-OMeA1 (500 ng/ml) was added to a culture containing 200,000 cells/ml, and to another flask containing only the medium. From the flasks, portions were removed at various times and, as appropriate, centrifuged to collect cells. Samples of cell-free medium, to which NaF/EDTA was added, were extracted. Collected cells were suspended in phosphate-buffered saline (PBS) containing NaF/EDTA, subjected to sonication, and then extracted and analyzed.

[3] = target: T1, recombinant human Bcl-2ΔC22 (Homo sapiens, UniProt P10415); experiment: Antimycin A3 fluorescence binding and competition assay; details: 2 μM each, Bcl-2 3 μM, 7.5 minutes, 22.5° C.
T1 construct: poly-His (N); made in house
Description: In this assay, 0 to 5 μM antimycin A3 (Sigma Chemical Co., St. Louis, Mo.) was added to a physiological buffer (50 mM Tris-HCl pH 8.0, 0.2 M NaCl, 2 mM EDTA, 0.5% v/v glycerol) containing recombinant Bcl-2 or BCl-xL protein under conditions that permitted antimycin A3 to bind to the BH3-binding domain of Bcl-2 or BCl-xL (22.5° C. on a Hitachi F-2500 fluorescence spectrofluorimeter equipped with a thermostatted cell holder). […] The excitation wavelength was 335 nm, and the maximum emission wavelength for antimycin A3 was 428 nm with a slit width of 10 nm. The samples were mixed in a quartz cuvette and checked for inner filter effect over the concentration range of antimycin A3 used for this study. Blanks containing antimycin A3 at the same concentration as the experimental samples were used as controls in all measurements and necessary background corrections were made.
Recombinant human Bcl-2ΔC22 (a recombinant human Bcl-2 with a delection of 22 amino acid residue membrane anchor sequence from the carboxyl end) and mouse Bcl-xLΔC20 (a recombinant murine BCl-xL with a delection of the 20 amino acid residue membrane anchor sequence from the carboxyl end) fused with poly-His at the N-terminus were chromatographically purified to homogeneity. The concentrations of antimycin A3 and stock solutions of recombinant proteins were quantitated using an extinction coefficient of 7.24/mM/cm at 320 nm and by Bradford assay, respectively. The stoichiometric ratio of antimycin A3 and Bcl-2 producing the maximal change in antimycin A3 fluorescence was determined with incremental addition of antimycin A3 to a 1.98 μM solution of recombinant Bcl-2 in a volume of 2.1 milliliters. […] For peptide displacement experiments, a solution of 2 μM antimycin A3 and 3 μM Bcl-2 was allowed to reach binding equilibrium at 4° C. prior to fluorescence measurements. Native peptide corresponding to the BH3 domain of Bak (72-[…]87 (SEQ ID NO:1)) or a mutant peptide with a single amino acid change (Leu78Ala-BH3) was added to the solution and the fluorescence measurements were repeated. […]

[4] = system: control mitochondria (TABX1A cells); experiment: Rhodamine 123 retention assay; design: species or system murine
Description: Rh-123 is a cationic lipid-soluble fluorescent dye that accumulates in mitochondria in proportion to the mitochondrial membrane potential. Mitochondria were isolated from TABX2S cells (over-expressing Bcl-xL) and from control cells, prepared as described in Example 2. The isolated mitochondria were loaded with Rh-123 by incubating with 10 μM Rh-123 for 30 minutes, washed and resuspended in buffer. […] Less than 40% of Rh-123 was retained in antimycin A-treated TABX2S mitochondria, compared with greater than 80% retained in control mitochondria.
In contrast, the control cells, which express BCl-xL at physiological levels, were resistant to BH3 peptide-induced membrane depolarization.

TABX1A cells = experiment: Intracellular ATP, luciferase-luciferin assay; assay type: cell-based, murine; details: 2 μg/ml plus fructose 50 mM
Description: (§1) Fructose is a substrate that provides ATP production through the glycolytic pathway. After a 30-60 minute incubation, cells were harvested and intracellular ATP concentrations were determined by an ATP-dependent luciferase-luciferin assay (Sigma, St. Louis, Mo.). The ATP concentrations in DMSO-treated cells were taken as 100%. In parallel experiments, cell viability was determined after six hours.

TABX2S cells = experiment: Intracellular ATP, luciferase-luciferin assay; assay type: cell-based, murine; details: 2 μg/ml plus fructose 50 mM
Description: as §1

[5] = system: mitochondria from TABX1A cells; experiment: Swelling of isolated mitochondria (absorbance at 540 nm); design: species or system murine; details: even at much higher concentrations

T1 sequence (P10415 1-217 limits assumed, stated change not applied): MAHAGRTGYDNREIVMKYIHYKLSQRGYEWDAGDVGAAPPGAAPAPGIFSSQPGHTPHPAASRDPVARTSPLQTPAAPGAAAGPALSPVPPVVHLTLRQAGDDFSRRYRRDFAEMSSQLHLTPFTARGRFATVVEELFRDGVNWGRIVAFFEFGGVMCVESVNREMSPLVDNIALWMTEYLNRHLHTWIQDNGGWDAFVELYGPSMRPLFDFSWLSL

CCCCCC[C@H]1C(=O)O[C@H](C)[C@H](NC(=O)c2cccc(NC=O)c2OC)C(=O)O[C@@H](C)[C@@H]1OC(=O)CC(C)C [2-OMeA1, 2-methoxy antimycin A1]
AUC ([1]; Intraperitoneal dose 20 mg/kg): 2410 ng·h/mL
Cmax ([1]; Intraperitoneal dose 20 mg/kg): 483 ng/mL
MRT ([1]; Intraperitoneal dose 20 mg/kg): 474 min
T1/2 ([1]; Intraperitoneal dose 20 mg/kg): 183 min
AUC ([1]; Intravenous dose 20 mg/kg): 3720 ng·h/mL
Cmax ([1]; Intravenous dose 20 mg/kg): 8000 ng/mL
MRT ([1]; Intravenous dose 20 mg/kg): 27.6 min
T1/2 ([1]; Intravenous dose 20 mg/kg, 20 mg/kg): 19 min and 19.2 min
plasma concentration at 24 hr after dosing ([1]; intraperitoneal 20 mg/kg): 18 ng/mL
time of maximum plasma level ([1]; intraperitoneal 20 mg/kg): 30 min
plasma concentration at 30 min after dosing ([1]; intravenous 20 mg/kg): 1040 ng/mL
plasma concentration at 30 min as share of that at 5 min ([1]; intravenous 20 mg/kg): about 15%
plasma concentration at 24 hr after dosing ([1]; intravenous 20 mg/kg): 15 ng/mL
stability in the medium from cell cultures [2]: notably less stable in the absence of fetal bovine serum

CCCC[C@H]1C(=O)OC(C)[C@H](NC(=O)c2cccc(NC=O)c2OC)C(=O)O[C@@H](C)C1OC(=O)CC(C)C (some centres unmarked) [2-OMeA3, Antimycin A3 methyl ether]
competition with antimycin A3 for Bcl-2 [3]: competition for the antimycin A3 binding site

antimycin A
Rh123 dye leakage ([4]; BH3 peptide 3.5 μM): minimally affected
Rh-123 retained ([4]; five minutes after adding): greater than 80%
ATP level, of control (TABX1A cells): approximately 60%
ATP level, of control (TABX2S cells): approximately 60%
mitochondrial swelling [5]: did not exhibit similar permeability changes and swelling
